Experimental data as given in patent US20020137154A1, “Methods for improving cell growth and alcohol production during fermentation” (priority 2000, published 2002).

How the values were obtained:
[1] = tested on: recombinant Escherichia coli KO11; assay: Batch fermentation of E. coli KO11 in 1% CSL medium and xylose with nutrient additives: ethanol production and cell growth; type: cell-based; conditions: additive 2 g/L unless indicated; for activity at 2000 µg/mL: Escherichia coli
Experimental: (§1) Two types of media were tested: 1% CSL and Luria broth (LB). Each contained 97 g of either xylose or glucose per liter. Luria Broth consists of, per liter: 10 g Difco® Tryptone, 5 g Difco® Yeast Extract and 5 g NaCl. The 1% CSL medium consists of Corn Steep Liquor (1% w/v) plus mineral salts (mineral salts per liter: 1 g of KH2PO4. 0.5 g of K2HPO4, 3.1 g of (NH4)2SO4, 0.4 g of MgCl2·6H2), and 20 mg FeCl3·6H2O).
(§2) Luria Broth was prepared by autoclaving a 2× nutrient stock containing, per liter: 20 g Difco® Tryptone, 10 g Difo® Yeast Extract, and 10 g NaCl. Sugars (xylose or glucose) were autoclaved separately. A 1% CSL medium was prepared as follows: Commercial Corn Steep Liquor (CSL; 50% dry weight/50% water) was diluted with tap water to make a 20X stock containing 100 g dry weight of Corn Steep Liquor/L and was adjusted to pH 7.2 with NaOH (50%). After sterilization by autoclaving, the 20X CSL stock was clarified by centrifugation at 5000×g for 10 minutes. Magnesium was added as a 100× stock solution (40 g/L MgCl2·6H2O). Iron was added as a 1000× stock solution made by dissolving 20 g FeCl3·6H2O in 175 mL of HCl and adjusting to 1 L with sterile water. Nitrogen, sulfur and phosphorus were added using a 20× stock solution containing the following (per liter): 20 g of KH2PO4, 10 g of K2HPO4 and 62 g of (NH4)2SO4. Stock solutions containing minerals were sterilized separately by autoclaving. Final media was prepared by adding 750 mL of water to 1 L bottle containing 100 g of xylose or glucose.
Inocula were grown in same media used for fermentation and were prepared as follows. Three colonies from a fresh plate were used to inoculate seed cultures: 250-mL flask containing 100 mL medium. These cultures were grown with agitation (120 rpm) for 12-16 hours at 35° C. to a final OD550nm of approximately 2.0-2.5. Cells were harvested by centrifugation at 5000×g for 5 minutes, and resuspended in fresh media to an OD550nm of 0.1. The resulting suspension was distributed into 500-mL beakers containing 345 ml each of fermentation medium. Acetaldehyde was added as indicated. Batch fermentations (35° C., 100 rpm) were maintained at pH 6.5 by the automatic addition of 2N KOH. Cell mass, ethanol, and base addition (2N KOH) were recorded during 96 hours of incubation. […]
(§3) Additives (e.g., as listed in Table 1) were dissolved in 5 mL di-H2O. Solutions with pH lower than 5 were neutralized to pH 6.5 with 2N KOH. Nutritional supplements were then filter-sterilized (0.45 μm filter disk) directly into the fermentation vessel containing the culture. The final concentration of all additives in the culture medium was 2 g/L unless otherwise indicated.
(§4) Cell mass was estimated by measuring OD550nm using Baush & Lomb® Spectronic 70 spectrophotometer. […] Ethanol was measured by gas chromatography using a Varian® 3400 CX gas chromatograph with 1-propanol as an internal standard.
(§5) Tables 1, 3, and 5 show time to completion of fermentation, ethanol production, and volumetric productivity of the fermentation for all concentrations of the compound and the control. Maximum ethanol production is shown in grams/liter (g/L). The ethanol yield is shown in grams of ethanol/grams of added sugar. Maximum volumetric productivity is shown in grams ethanol/(liter)(hour). The average productivity is calculated form the start of fermentation to the completion of fermentation is grams ethanol/(liter)hour).
Tables 2, 4, and 6 show the initial growth of the cells (OD taken after the first 24 hours of fermentation) and the maximum cell density (the time which culture reaches the maximum OD value). […]

[2] = tested on: recombinant Escherichia coli KO11; assay: Batch fermentation of E. coli KO11 in 1% CSL medium and glucose with nutrient additives: ethanol production and cell growth; type: cell-based; conditions: additive 2 g/L unless indicated; for activity at 2000 µg/mL: Escherichia coli
Experimental: as §1, §2
Inocula were grown in same media used for fermentation and were prepared as follows. Three colonies from a fresh plate were used to inoculate seed cultures: 250-mL flask containing 100 mL medium. These cultures were grown with agitation (120 rpm) for 12-16 hours at 35° C. to a final OD550nm of approximately 2.0-2.5. Cells were harvested by centrifugation at 5000×g for 5 minutes, and resuspended in fresh media to an OD550nm of 0.1. The resulting suspension was distributed into 500-mL beakers containing 345 ml each of fermentation medium. Acetaldehyde was added as indicated. Batch fermentations (35° C., 100 rpm) were maintained at pH 6.5 by the automatic addition of 2N KOH. Cell mass, ethanol, and base addition (2N KOH) were recorded during 96 hours of incubation.
Equivalent amounts of distilled water were added instead of the acetaldehyde in control experiments.
as §3, §4, §5
Tables 2, 4, and 6 show the initial growth of the cells (OD taken after the first 24 hours of fermentation) and the maximum cell density (the time which culture reaches the maximum OD value).
Acetaldehyde was added to the fermentation medium at five different concentrations and time points. […] Where two additions are indicated, the first volume was added at the start of fermentation and the second was added after 8 hours of fermentation.

## O=C(O)CC(=O)C(=O)O [Oxaloacetate]
[1]; 1% CSL+xylose
  Ethanol Production Maximum: 23.61 g/L
  Ethanol yield: 0.243 grams of ethanol/grams of added sugar
  Initial Growth (OD @ 24 h) OD: 1.65 OD
  Maximum Cell Density OD: 2.26 OD
  Maximum Cell Density Time: 96 h
  Volumetric Productivity Average: 0.246 grams ethanol/(liter)(hour)
  Volumetric Productivity Maximum: 0.270 grams ethanol/(liter)(hour)
[1]; 24 h, read-out: Initial Growth (OD @ 24 h) % Control, 1% CSL+xylose
  activity at 2000 µg/mL: 80.8%
[1]; read-out: Ethanol Production Maximum % Control, 1% CSL+xylose
  activity at 2000 µg/mL: 78.5%
[1]; read-out: Maximum Cell Density % Control, 1% CSL+xylose
  activity at 2000 µg/mL: 89.9%
[1]; read-out: Volumetric Productivity Average % Control, 1% CSL+xylose
  activity at 2000 µg/mL: 78.5%
[1]; read-out: Volumetric Productivity Maximum % Control, 1% CSL+xylose
  activity at 2000 µg/mL: 73.3%
[2]; 1% CSL+glucose
  Ethanol Production Maximum: 39.72 g/L
  Ethanol yield: 0.409 grams of ethanol/grams of added sugar
  Initial Growth (OD @ 24 h) OD: 3.29 OD
  Maximum Cell Density OD: 3.46 OD
  Volumetric Productivity Average: 0.552 grams ethanol/(liter)(hour)
  Volumetric Productivity Maximum: 0.712 grams ethanol/(liter)(hour)
[2]; 24 h, read-out: Initial Growth (OD @ 24 h) % Control, 1% CSL+glucose
  activity at 2000 µg/mL: 123%
[2]; read-out: Ethanol Production Maximum % Control, 1% CSL+glucose
  activity at 2000 µg/mL: 107%
[2]; read-out: Maximum Cell Density % Control, 1% CSL+glucose
  activity at 2000 µg/mL: 129%
[2]; read-out: Volumetric Productivity Average % Control, 1% CSL+glucose
  activity at 2000 µg/mL: 143%
[2]; read-out: Volumetric Productivity Maximum % Control, 1% CSL+glucose
  activity at 2000 µg/mL: 138%

## O=C(O)/C=C/C(=O)O [Fumarate]
[1]; 1% CSL+xylose
  Ethanol Production Maximum: 28.49 g/L
  Ethanol Production Maximum % Control: 94.73%
  Ethanol yield: 0.293 grams of ethanol/grams of added sugar
  Initial Growth (OD @ 24 h) % Control: 91.16%
  Initial Growth (OD @ 24 h) OD: 1.86 OD
  Maximum Cell Density % Control: 103.15%
  Maximum Cell Density OD: 2.60 OD
  Maximum Cell Density Time: 96 h
  Time to completion: >96 h
  Volumetric Productivity Average: 0.297 grams ethanol/(liter)(hour)
  Volumetric Productivity Average % Control: 94.73%
  Volumetric Productivity Maximum: 0.345 grams ethanol/(liter)(hour)
  Volumetric Productivity Maximum % Control: 93.682%
[2]; 1% CSL+glucose
  Ethanol Production Maximum: 32.92 g/L
  Ethanol Production Maximum % Control: 88.98%
  Ethanol yield: 0.339 grams of ethanol/grams of added sugar
  Initial Growth (OD @ 24 h) % Control: 99.76%
  Initial Growth (OD @ 24 h) OD: 2.67 OD
  Maximum Cell Density % Control: 117.92%
  Maximum Cell Density OD: 3.17 OD
  Maximum Cell Density Time: 72 h
  Time to completion: 96 h
  Volumetric Productivity Average: 0.343 grams ethanol/(liter)(hour)
  Volumetric Productivity Average % Control: 88.98%
  Volumetric Productivity Maximum: 0.559 grams ethanol/(liter)(hour)
  Volumetric Productivity Maximum % Control: 108.88%
